Test results: US6150385A, “1,3,4-thiadiazoles useful for the treatment of CMV infections” (Pharmacia & Upjohn Company, priority 1999, dated 2000)

target: T1, HCMV polymerase (Human cytomegalovirus, UniProt P08546); test: HCMV polymerase assay (scintillation proximity assay); assay type: biochemical; details: percentage of inhibition at 25 μM concentration in CMV polymerase assay
T1 construct: made in house; host or cells: SF-9 insect cells infected with recombinant baculovirus
How it was run: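 Baculovirus/SF-9-expressed HCMV polymerase in 5.4 mM HEPES pH 7.5, 11.7 mM KCl, 4.5 mM MgCl2, 0.36 mg/ml BSA, 90 nM 3H-dTTP, with or without 2 mM CHAPS. Started with 6 nM biotinylated poly(dA)-oligo(dT), 30 min at 25 or 37 °C, EDTA-stopped, read by streptavidin-SPA counting; % inhibition at 25 μM.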

T1 sequence (P08546 whole entry): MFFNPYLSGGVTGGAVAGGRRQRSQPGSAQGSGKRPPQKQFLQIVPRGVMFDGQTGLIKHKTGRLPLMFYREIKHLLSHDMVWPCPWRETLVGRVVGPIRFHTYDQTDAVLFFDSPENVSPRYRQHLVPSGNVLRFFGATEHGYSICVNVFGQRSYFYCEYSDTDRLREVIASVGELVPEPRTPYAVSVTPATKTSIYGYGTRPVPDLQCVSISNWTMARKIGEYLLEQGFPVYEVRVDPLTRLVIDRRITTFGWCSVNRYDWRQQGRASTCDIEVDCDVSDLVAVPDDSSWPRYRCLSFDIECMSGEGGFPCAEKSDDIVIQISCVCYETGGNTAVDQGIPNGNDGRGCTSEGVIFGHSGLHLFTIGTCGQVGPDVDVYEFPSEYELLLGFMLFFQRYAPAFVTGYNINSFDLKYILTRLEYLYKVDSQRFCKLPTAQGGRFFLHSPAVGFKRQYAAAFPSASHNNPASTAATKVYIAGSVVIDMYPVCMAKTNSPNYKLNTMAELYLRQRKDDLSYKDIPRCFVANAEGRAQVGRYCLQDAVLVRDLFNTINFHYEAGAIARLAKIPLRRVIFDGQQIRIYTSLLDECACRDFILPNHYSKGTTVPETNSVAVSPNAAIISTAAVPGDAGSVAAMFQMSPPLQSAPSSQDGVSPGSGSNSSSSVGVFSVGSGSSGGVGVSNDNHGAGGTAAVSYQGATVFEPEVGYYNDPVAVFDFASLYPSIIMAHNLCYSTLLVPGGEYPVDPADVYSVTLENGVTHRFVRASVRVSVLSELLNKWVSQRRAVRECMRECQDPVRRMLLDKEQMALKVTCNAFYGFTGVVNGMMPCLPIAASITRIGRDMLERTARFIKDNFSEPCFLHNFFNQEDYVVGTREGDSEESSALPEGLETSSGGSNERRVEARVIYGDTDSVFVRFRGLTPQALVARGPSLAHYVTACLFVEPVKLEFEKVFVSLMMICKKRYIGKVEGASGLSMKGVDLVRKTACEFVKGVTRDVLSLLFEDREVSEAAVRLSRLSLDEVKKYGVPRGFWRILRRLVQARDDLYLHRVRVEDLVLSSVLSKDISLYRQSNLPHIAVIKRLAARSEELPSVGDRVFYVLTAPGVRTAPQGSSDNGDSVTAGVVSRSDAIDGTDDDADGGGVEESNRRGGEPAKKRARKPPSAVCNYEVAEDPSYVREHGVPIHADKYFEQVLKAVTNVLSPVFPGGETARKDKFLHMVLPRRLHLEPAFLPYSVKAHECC

**Q.** `Cc1ccc(C(=O)Nc2nnc(NCc3ccc4c(c3)OCO4)s2)cc1` [compound 181, N-{5-[(1,3-benzodioxol-5-ylmethyl)amino]1,3,4-thiadiazol-2-yl}-4-methylbenzamide] was tested. Which inhibition at 25 µM did it give?
**A.** Its inhibition at 25 µM is 48.3%.

**Q.** `O=C(Nc1nnc(NCC(c2ccccc2)c2ccccc2)s1)c1ccc(F)cc1F` [compound 182, N-{5-[(2,2-diphenylethyl)amino]-1,3,4-thiadiazol-2-yl}-2,4-difluorobenzamide] was tested. Which inhibition at 25 µM did it give?
**A.** Its inhibition at 25 µM is 48.2%.

**Q.** For `O=C(CCCCCl)Nc1nnc(NCCC(c2ccccc2)c2ccccc2)s1` [compound 183, 5-chloro-N-{5-[(3,3-diphenylpropyl)amino]-1,3,4-thiadiazol-2-yl}pentanamide], which inhibition at 25 µM is on record?
**A.** The inhibition at 25 µM was 48.1%.

**Q.** `O=C(Nc1nnc(NCCCN2CCCC2=O)s1)c1ccc2c(c1)C(=O)OC2=O` [compound 184, 1,3-dioxo-N-(5-{[3-(2-oxo-1-pyrrolidinyl)propyl]amino}-1,3,4-thiadiazol-2-yl)-1,3-dihydro-2-benzofuran-5-carboxamide] was tested. Which inhibition at 25 µM did it give?
**A.** Its inhibition at 25 µM is 47.8%.

**Q.** Which inhibition at 25 µM does the source give for `O=C(/C=C/c1ccccc1Cl)Nc1nnc(NCCc2cccs2)s1` [compound 185, (E)-3-(2-chlorophenyl)-N-(5-{[2-(2-thienyl)ethyl]amino}-1,3,4-thiadiazol-2-yl)-2-propenamide] here?
**A.** The inhibition at 25 µM was 47.6%.

**Q.** How did the inhibition at 25 µM turn out when `O=C(CCCCCl)Nc1nnc(NCC(c2ccccc2)c2ccccc2)s1` [compound 186, 5-chloro-N-{5-[(2,2-diphenylethyl)amino]-1,3,4-thiadiazol-2-yl}pentanamide] was run?
**A.** Its inhibition at 25 µM is 47.4%.

**Q.** How did the inhibition at 25 µM turn out when `O=C(Nc1nnc(NCC(c2ccccc2)c2ccccc2)s1)c1cc2ccccc2s1` [compound 187, N-{5-[(2,2-diphenylethyl)amino]-1,3,4-thiadiazol-2-yl}-1-benzothiophene-2-carboxamide] was run?
**A.** Its inhibition at 25 µM is 47.2%.

**Q.** Which inhibition at 25 µM does the source give for `O=C(Nc1nnc(NCC(c2ccccc2)c2ccccc2)s1)c1cc(F)cc(F)c1` [compound 188, N-{5-[(2,2-diphenylethyl)amino]-1,3,4-thiadiazol-2-yl}-3,5-difluorobenzamide] here?
**A.** Its inhibition at 25 µM is 47.2%.

**Q.** For `O=C(Nc1nnc(NCCCNC2CCCCC2)s1)c1ccc(S(=O)(=O)F)cc1` [compound 189, 4-{[(5-{[3-(cyclohexylamino)propyl]amino}-1,3,4-thiadiazol-2-yl)amino]carbonyl}benzenesulfonyl fluoride], which “% Inhib” value is on record?
**A.** Its value is 47.1%.

**Q.** Which inhibition at 25 µM does the source give for `O=C(Nc1nnc(NCc2cccc3ccccc23)s1)c1cccc([N+](=O)[O-])c1` [compound 190, N-{5-[(1-naphthylmethyl)amino]-1,3,4-thiadiazol-2-yl}-3-nitrobenzamide] here?
**A.** The inhibition at 25 µM was 47.1%.

**Q.** With `O=C(Nc1nnc(NCCCN2CCCC2=O)s1)c1ccc(Cl)c(Cl)c1` [compound 191, 3,4-dichloro-N-(5-{[3-(2-oxo-1-pyrrolidinyl)propyl]amino}-1,3,4-thiadiazol-2-yl)benzamide] as the molecule, how does the inhibition at 25 µM read?
**A.** The inhibition at 25 µM was 47.1%.

**Q.** `O=C(Nc1nnc(NC2CCCc3ccccc32)s1)c1ccc([N+](=O)[O-])o1` (stereo not drawn) [compound 192, 5-nitro-N-[5-(1,2,3,4-tetrahydro-1-naphthalenylamino)-1,3,4-thiadiazol-2-yl]-2-furamide] was tested. Which inhibition at 25 µM did it give?
**A.** Its inhibition at 25 µM is 47%.

**Q.** How did the inhibition at 25 µM turn out when `CCSCCNc1nnc(NC(=O)/C=C/c2ccccc2Cl)s1` [compound 193, (E)-3-(2-chlorophenyl)-N-(5-{[2-(ethylsulfanyl)ethyl]amino}-1,3,4-thiadiazol-2-yl)-2-propenamide] was run?
**A.** Its inhibition at 25 µM is 46.9%.

**Q.** How did the inhibition at 25 µM turn out when `CCCCCCCCCCCNc1nnc(NC(=O)c2ccc(Br)cc2)s1` [compound 194, 4-bromo-N-[5-(undecylamino)-1,3,4-thiadiazol-2-yl]benzamide] was run?
**A.** The inhibition at 25 µM was 46.8%.

**Q.** How did the “% Inhib” value turn out when `O=C(Nc1nnc(NCc2cccc3ccccc23)s1)c1ccc(S(=O)(=O)F)cc1` [compound 195, 4-[({5-[(1-naphthylmethyl)amino]-1,3,4-thiadiazol-2-yl}amino)carbonyl]benzenesulfonyl fluoride] was run?
**A.** Its value is 46.7%.

**Q.** With `O=C(/C=C/c1ccccc1Cl)Nc1nnc(NC2CCCCCC2)s1` [compound 196, (E)-3-(2-chlorophenyl)-N-[5-(cycloheptylamino) 1,3,4-thiadiazol-2-yl]-2-propenamide] as the molecule, how does the inhibition at 25 µM read?
**A.** The inhibition at 25 µM was 46.2%.

**Q.** Which inhibition at 25 µM does the source give for `O=C(Nc1nnc(NCCCCc2ccccc2)s1)c1ccc(F)cc1F` [compound 197, 2,4-difluoro-N-{5-[(4-phenylbutyl)amino]-1,3,4-thiadiazol-2-yl}benzamide] here?
**A.** The inhibition at 25 µM was 46.2%.

**Q.** For `O=C(Nc1nnc(NCCSc2ccccc2)s1)c1ccc(I)cc1` [compound 198, 4-iodo-N-(5-{[2-(phenylsulfanyl)ethyl]amino}-1,3,4-thiadiazol-2-yl)benzamide], which inhibition at 25 µM is on record?
**A.** Its inhibition at 25 µM is 46%.

**Q.** How did the inhibition at 25 µM turn out when `CCCCCCCC/C=C/CCCCCCCC(=O)Nc1nnc(NC2CCC2)s1` [compound 199, (E)-N-[5-(cyclobutylamino)-1,3,4-thiadiazol-2-yl]-9-octadecenamide] was run?
**A.** Its inhibition at 25 µM is 46%.

**Q.** With `O=C(CCCCCl)Nc1nnc(NCc2cccc3ccccc23)s1` [compound 200, 5-chloro-N-{5-[(1-naphthylmethyl)amino]-1,3,4-thiadiazol-2-yl}pentanamide] as the molecule, how does the inhibition at 25 µM read?
**A.** The inhibition at 25 µM was 45.3%.

**Q.** How did the inhibition at 25 µM turn out when `O=C(Nc1nnc(NC2CCCCCC2)s1)c1cccc([N+](=O)[O-])c1` [compound 201, N-[5-(cycloheptylamino)-1,3,4-thiadiazol-2-yl]-3-nitrobenzamide] was run?
**A.** Its inhibition at 25 µM is 45.3%.

**Q.** Which inhibition at 25 µM does the source give for `O=C(Nc1nnc(NCCCn2ccnc2)s1)c1ccc(Cl)c(Cl)c1` [compound 202, 3,4-dichloro-N-(5-{[3-(1H-imidazol-1-yl)propyl]amino}-1,3,4-thiadiazol-2-yl)benzamide] here?
**A.** The inhibition at 25 µM was 45%.

**Q.** Which inhibition at 25 µM does the source give for `O=C(Nc1nnc(NCCCN2CCCC2=O)s1)c1ccc(I)cc1` [compound 203, 4-iodo-N-(5-{[3-(2-oxo-1-pyrrolidinyl)propyl]amino}-1,3,4-thiadiazol-2-yl)benzamide] here?
**A.** The inhibition at 25 µM was 45%.

**Q.** Which “% Inhib” value does the source give for `O=C(Nc1nnc(NCCNc2ccccc2)s1)c1ccc(S(=O)(=O)F)cc1` [compound 204, 4-[({5-[(2-anilinoethyl)amino]-1,3,4-thiadiazol-2-yl}amino)carbonyl]benzenesulfonyl fluoride] here?
**A.** Its value is 45.0%.

**Q.** Which inhibition at 25 µM does the source give for `O=C(Nc1nnc(NCCSc2ccccc2)s1)c1ccc(F)cc1F` [compound 205, 2,4-difluoro-N-(5-{[2-(phenylsulfanyl)ethyl]amino}-1,3,4-thiadiazol-2-yl)benzamide] here?
**A.** The inhibition at 25 µM was 44.9%.

**Q.** Which inhibition at 25 µM does the source give for `CCOc1ccc2ccccc2c1C(=O)Nc1nnc(NCCSc2ccccc2)s1` [compound 206, 2-ethoxy-N-(5-{[2-(phenylsulfanyl)ethyl]amino}-1,3,4-thiadiazol-2-yl)-1-naphthamide] here?
**A.** The inhibition at 25 µM was 44.9%.

**Q.** For `CCOc1ccc2ccccc2c1C(=O)Nc1nnc(NCc2ccc(Cl)c(Cl)c2)s1` [compound 207, N-{5-[(3,4-dichlorobenzyl)amino]-1,3,4-thiadiazol-2-yl}-2-ethoxy-1-naphthamide], which inhibition at 25 µM is on record?
**A.** Its inhibition at 25 µM is 44.7%.

**Q.** `O=C(/C=C/c1ccccc1Cl)Nc1nnc(NCCCN2CCCC2=O)s1` [compound 208, (E)-3-(2-chlorophenyl)-N-(5-{[3-(2-oxo-1-pyrrolidinyl)propyl]amino}-1,3,4-thiadiazol-2-yl)-2-propenamide] was tested. Which inhibition at 25 µM did it give?
**A.** Its inhibition at 25 µM is 44.7%.

**Q.** With `CC1(C)C2CC[C@@H](CNc3nnc(NC(=O)c4ccc([N+](=O)[O-])o4)s3)C1C2` (stereo partly drawn) [compound 209, N-[5-({[(2R)-6,6-dimethylbicyclo[3.1.1]hept-2-yl]methyl}amino)-1,3,4-thiadiazol-2-yl]-5-nitro-2-furamide] as the molecule, how does the inhibition at 25 µM read?
**A.** Its inhibition at 25 µM is 44.7%.

**Q.** With `O=C(/C=C/c1ccccc1Cl)Nc1nnc(NCCc2ccccc2)s1` [compound 210, (E)-3-(2-chlorophenyl)-N-[5-(phenethylamino)-1,3,4-thiadiazol-2-yl]-2-propenamide] as the molecule, how does the inhibition at 25 µM read?
**A.** Its inhibition at 25 µM is 44.6%.

**Q.** For `CCSCCNc1nnc(NC(=O)/C=C/c2ccccc2)s1` [compound 211, (E)-N-(5-{[2-(ethylsulfanyl)ethyl]amino}-1,3,4-thiadiazol-2-yl)-3-phenyl-2-propenamide], which inhibition at 25 µM is on record?
**A.** Its inhibition at 25 µM is 44.3%.

**Q.** With `O=C(Nc1nnc(NCCCNC2CCCCC2)s1)c1ccc(I)cc1` [compound 212, N-(5-{[3-(cyclohexylamino)propyl]amino}-1,3,4-thiadiazol-2-yl)-4-iodobenzamide] as the molecule, how does the inhibition at 25 µM read?
**A.** Its inhibition at 25 µM is 44.2%.

**Q.** `CCOc1ccc2ccccc2c1C(=O)Nc1nnc(NCc2ccco2)s1` [compound 213, 2-ethoxy-N-{5-[(2-furylmethyl)amino]-1,3,4-thiadiazol-2-yl}-1-naphthamide] was tested. Which inhibition at 25 µM did it give?
**A.** The inhibition at 25 µM was 44.2%.

**Q.** `O=C(Nc1nnc(NCc2cccc3ccccc23)s1)c1cc2ccccc2s1` [compound 214, N-{5-[(1-naphthylmethyl)amino]-1,3,4-thiadiazol-2-yl}-1-benzothiophene-2-carboxamide] was tested. Which inhibition at 25 µM did it give?
**A.** The inhibition at 25 µM was 44.1%.

**Q.** Which inhibition at 25 µM does the source give for `O=C(/C=C/c1ccccc1)Nc1nnc(NCCc2c[nH]cn2)s1` [compound 215, (E)-N-(5-{[2-(1H-imidazol-4-yl)ethyl]amino}-1,3,4-thiadiazol-2-yl)-3-phenyl-2-propenamide] here?
**A.** Its inhibition at 25 µM is 44.1%.

**Q.** Which inhibition at 25 µM does the source give for `CCCCCCCCCCCNc1nnc(NC(=O)/C=C/c2ccccc2Cl)s1` [compound 216, (E)-3-(2-chlorophenyl)-N-[5-(undecylamino)-1,3,4-thiadiazol-2-yl]-2-propenamide] here?
**A.** Its inhibition at 25 µM is 43.9%.

**Q.** `O=C(Nc1nnc(NCCC(c2ccccc2)c2ccccc2)s1)c1ccc(S(=O)(=O)F)cc1` [compound 217, 4-[({5-[(3,3-diphenylpropyl)amino]-1,3,4-thiadiazol-2-yl}amino)carbonyl]benzenesulfonyl fluoride] was tested. Which “% Inhib” value did it give?
**A.** The value was 43.9%.

**Q.** For `O=C(Nc1nnc(NC2CCN(Cc3ccccc3)CC2)s1)c1cc2ccccc2s1` [compound 218, N-{5-[(1-benzyl-4-piperidinyl)amino]-1,3,4-thiadiazol-2-yl}-1-benzothiophene-2-carboxamide], which inhibition at 25 µM is on record?
**A.** The inhibition at 25 µM was 43.6%.

**Q.** For `CC(C)c1cc(C(C)C)c(C(=O)Nc2nnc(NCCc3c[nH]c4ccccc34)s2)c(C(C)C)c1` [compound 219, N-(5-{[2-(1H-indol-3-yl)ethyl]amino}-1,3,4-thiadiazol-2-yl)-2,4,6-triisopropylbenzamide], which inhibition at 25 µM is on record?
**A.** Its inhibition at 25 µM is 43.6%.
